This data set in a line: Human HepG2 cell viability assay in 384 well format. The data set is classed as toxicity, cell-based. The settings on record: HepG2 cells, read-out: Inhibition. More on the design: dose 125 nL, time 70.5 hour; concentration not given beside the values.
Regarding `Cc1c(Cl)cccc1S(=O)(=O)N1C[C@@H]2CC[C@H](C1)N(C)C2=O`, the cytotoxicity at 70.5 h turned out to be 1.2%.
On to `Cc1noc(CN2CCN(Cc3cccs3)CC2)n1`, for which the cytotoxicity at 70.5 h was -25.4%.
Regarding `O=C(C[S+]([O-])Cc1csc(C2CCCC2)n1)Nc1ccccc1` (centres undefined), the cytotoxicity at 70.5 h is -17.5%.
`Cc1ccc(S(=O)(=O)N2CCCCC(N3CCN(C)CC3)C2)cc1F` (centres undefined): the cytotoxicity at 70.5 h was -5.17%.
To `CC(C)c1nc(NC(=O)CCCn2cccc2)n(C)n1` belongs 3.43%.
Consider `CC(=O)Nc1nc(CN2CCOC(Cn3cncn3)C2)cs1` (centres undefined), for which the cytotoxicity at 70.5 h was -5.38%.
Take `CC(C)(C)C(=O)NCCC(=O)N1CCC(Nc2cccnn2)CC1`: the cytotoxicity at 70.5 h is -0.84%.
As for `CC(Cn1cncn1)NCc1csc2c1CCCC2` (centres undefined), the cytotoxicity at 70.5 h was -0.547%.
Under `CSc1ccc(C(=O)N2CCOCC2c2c(C)nn(C)c2C)o1` (centres undefined) stands -4.66%; under `CCOC(=O)c1s/c(=N\C(=O)COc2cnc(C)cc2O)[nH]c1C`, -19%; under `CCn1nc(C)c(CCN2CC3(CCOC3)CCC2=O)c1C` (centres undefined), 25.5%.
For the compound `c1cncc(-c2nc3c(c(NCC4(c5ccncc5)CC4)n2)CCC3)c1`, the cytotoxicity at 70.5 h was -0.48%.
Regarding `Cc1cccc(SC2CCN(C(=O)CCNS(C)(=O)=O)CC2)c1`, the cytotoxicity at 70.5 h was -13.1%.
With `Cc1sc2nc(C(F)(F)F)nc(N3CCCN(C)CC3)c2c1C`, the cytotoxicity at 70.5 h came out at 22.1%.
In the case of `CC1CCCCN1CCNC(=O)c1scnc1Cl` (centres undefined), the cytotoxicity at 70.5 h was -12.6%.
In the case of `Cc1noc(C)c1CN1C[C@H]2CN(Cc3cccc(F)c3)C[C@H]2C1`, the cytotoxicity at 70.5 h is -1.37%.
As to `CC(=O)N(C)Cc1nn(C)c2c1CN(Cc1ccsc1)C2`, the cytotoxicity at 70.5 h was -6.65%.
In the case of `COc1ccccc1OC1CN(Cc2ccc(C(=O)O)cc2)C1`, the cytotoxicity at 70.5 h was -8.2%.
In the case of `FC(F)(F)Oc1ccc(-c2c[nH]c([C@@H]3COCCN3)n2)cc1`, the cytotoxicity at 70.5 h is -3.01%.
Regarding `CCNC(=O)[C@@H]1C[C@H](N)CN1Cc1ccc2cccc(Cl)c2n1`, the cytotoxicity at 70.5 h is -7.99%.
Turning to `CCOCC(=O)N1Cc2nccn2CC(CN2CCCC2)C1` (centres undefined), the cytotoxicity at 70.5 h was -11.5%.
As to `COc1ccc(-c2n[nH]cc2CN(C)Cc2nccn2C)c(F)c1`, the cytotoxicity at 70.5 h was -3.33%.
To `CNC(=O)c1ccc(CNCc2ccc(SC)c(OC)c2)cc1` belongs 27%.
For `Cc1c(C(=O)NCCC(=O)N2CCOCC2)sc2ccc(F)cc12`, the cytotoxicity at 70.5 h is 1.17%.
For `O=C(NC[C@H]1Cn2c(-c3ccccc3)cnc2CO1)C1CCOCC1`, the cytotoxicity at 70.5 h was -9.93%.
`CCC(C)(C)CC(=O)NC(C)C(=O)Nc1ccc(-n2cncn2)cc1` (centres undefined): the cytotoxicity at 70.5 h is -81.3%.
To `Cc1ccccc1C(=O)N1CCOC(c2ncc(CN(C)C)[nH]2)C1` (centres undefined) belongs -6.83%; to `c1ccc2oc(N3CCCC3Cn3cncn3)nc2c1` (centres undefined), -3.56%.
Consider `O=C(COc1ccc(-c2ccccc2)nc1)NCC1CC1`, for which the cytotoxicity at 70.5 h is -5.26%.
Regarding `CCN(C(=O)c1nc2c(s1)CCCN2C(C)=O)C(C)C`, the cytotoxicity at 70.5 h turned out to be 2.41%.
With `O=C(c1cnc2ccc(F)cc2c1NCc1ccco1)N1CCCC1`, the cytotoxicity at 70.5 h stood at 28.7%.
`CC(C)(C)CN[C@@H]1CO[C@H](CNC(=O)Nc2ccccc2)[C@H]1O`: the cytotoxicity at 70.5 h was -1.92%.
As to `O=C(NCCN1CCOCC1)c1cc(-c2ccc3c(c2)CCO3)n[nH]1`, the cytotoxicity at 70.5 h was determined as 2%.
Take `CCNC(=O)C1CCCN(C(=O)Nc2ccc3c(c2)CCCN3C)C1` (centres undefined): the cytotoxicity at 70.5 h is -9.82%.
Turning to `COc1cccc(CCCn2cnnc2[S+](C)[O-])c1` (centres undefined), the cytotoxicity at 70.5 h was -7.37%.
As for `COc1cccc(S(=O)(=O)CCN2CCN(CC(F)F)CC2)c1`, the cytotoxicity at 70.5 h amounted to 1.26%.
As to `CCc1nc(C2CCCN(C(=O)C3=NN(CC)C(=O)CC3)C2)no1` (centres undefined), the cytotoxicity at 70.5 h was -13.2%.
Consider `O=c1ccc2c(n1Cc1cccnc1)CCN(C1CCOC1)CC2` (centres undefined), for which the cytotoxicity at 70.5 h was -2.89%.
Under `Cc1cccc(NC(=O)NCCCn2nc3ccccn3c2=O)c1C` stands -8.44%; under `COCCNC(=O)NC1(c2nc(C)no2)CCCCC1`, -0.559%; under `Cc1cc(-c2cc(F)ccc2C(=O)O)nc(C2CCCN(C)C2)n1` (centres undefined), 2.71%.
To `COc1cccc(N2CCN(Cc3ccc4occc4c3)CC2=O)c1` belongs -12.9%; to `CC(=O)N[C@@H]1CN(Cc2nccn2C)C[C@H]1c1ccc(C)cc1`, 22.6%; to `Cc1nnc2n1CCN(Cc1nc(-c3ccoc3)no1)C2`, 13.6%.
Under `Cc1ccc(Cl)c(CN2CCC3(CC2)C(C(=O)O)CC(=O)N3C)c1F` (centres undefined) stands -5.82%.
Consider `CCC(CO)N(CC=C(C)C)Cc1ccsc1` (centres undefined), for which the cytotoxicity at 70.5 h was -2.49%.
Under `CNCc1cn(C[C@H]2C[C@@H]3CCN2C[C@@H]3C(=O)NC2CCCCC2)nn1` stands -5.79%; under `COc1ccccc1C(O)CNC(=O)Nc1cccnc1OC` (centres undefined), -3.1%; under `O=C(CCc1cccs1)Nc1ccnn1C1CCS(=O)(=O)C1` (centres undefined), -1.32%.
Under `CC(C)Cc1cn(C2CCN(C(C)CC3CC3)CC2)nn1` (centres undefined) stands -0.853%; under `Cc1nccn1CC1CCCN1S(=O)(=O)Cc1cccc(F)c1` (centres undefined), 18.7%; under `CCN1CCN(c2ccc(F)cc2C(C)NCc2nc(C)no2)CC1` (centres undefined), -0.791%.
As for `CN(Cc1ccccc1F)C(=O)c1ccoc1`, the cytotoxicity at 70.5 h was -4.97%.
Regarding `CC(NC(=O)N1CCC(CC(N)=O)CC1)c1csc2ccccc12` (centres undefined), the cytotoxicity at 70.5 h was -10.8%.
As for `CCCN1CCN(C(=O)CCn2cccc2)CC1`, the cytotoxicity at 70.5 h is -5.28%.
On to `Cc1cccc(CN2C(=O)CC[C@@H]3[C@H]2CCN3Cc2ccc(C)s2)n1`, for which the cytotoxicity at 70.5 h is -18.1%.
Under `OCCN1CCC(CNCc2ccc(N3CCCCC3)cc2)CC1` stands 1.15%.
Regarding `COc1cccc(C2CCCN2C(=O)c2ccc(=O)n(C)c2)c1` (centres undefined), the cytotoxicity at 70.5 h is -3.72%.
With `Cc1cc(C(=O)NCCC2CN(C)CCO2)c2cccc(C)c2n1` (centres undefined), the cytotoxicity at 70.5 h was -11.4%.
With `CN1CCC(N(C)CCC(=O)N2CCC(OCc3ccccc3)CC2)C1` (centres undefined), the cytotoxicity at 70.5 h amounted to 29.2%.
Under `OCCNC1CCc2cc3c(cc21)OCCO3` (centres undefined) stands 9.99%; under `COCC(=O)N1CCCN(Cc2c(C)nc3ccc(Cl)cn23)CC1`, 2.35%.
Turning to `CCCNC(=O)Cn1cc(-c2ccccc2)cn1`, the cytotoxicity at 70.5 h turned out to be 1.15%.
To `CCC1c2ccsc2CCN1Cc1cc2c(cc1OC)OCCO2` (centres undefined) belongs 1.24%; to `N#CC1(C(=O)N2C[C@H](Nc3ccnc(N)n3)[C@@H](C3CC3)C2)CCOCC1`, -3.81%; to `CCN(CC)S(=O)(=O)c1ccc(OC)c(NC(=O)CSC)c1`, 12.2%.
As to `COc1ccc(CN(C)C(=O)CSc2nnc(N)s2)c(OC)c1OC`, the cytotoxicity at 70.5 h is -5.3%.
To `Cc1nccn1C1CCCN(C(=O)c2ccc3c(c2)nc(C)n3C)C1` (centres undefined) belongs -3.08%.
As for `CCN1CCC(NC(=O)NCC(O)c2ccc(Cl)c(F)c2)CC1` (centres undefined), the cytotoxicity at 70.5 h came out at 6.86%.
`COC(=O)N1CCN(C(=O)c2ccc(C)c(N3CCNC3=O)c2)CC1`: the cytotoxicity at 70.5 h worked out at 14%.
As for `c1cc(CNCC2Cn3nncc3CO2)cs1` (centres undefined), the cytotoxicity at 70.5 h was -6.68%.
On to `CC(C)(CNC(=O)CCOc1cccc(F)c1)C(N)=O`, for which the cytotoxicity at 70.5 h came to 2.27%.
Turning to `CNCCN1C(=O)CC[C@H]2CN(c3ncc(F)cn3)CC[C@H]21`, the cytotoxicity at 70.5 h worked out at 20%.
With `CC(=O)N1CCCC1C(=O)N1CCC(=Cc2cccc(F)c2)CC1` (centres undefined), the cytotoxicity at 70.5 h is -14.8%.
Under `Cc1cc(C(=O)NC(C)Cc2cccc(Cl)c2)n(C)n1` (centres undefined) stands -2.61%.
For `O=C(NC1CC1)c1nc(Cn2c(C(F)F)nc3ccccc32)no1`, the cytotoxicity at 70.5 h was -7.88%.
Regarding `CCOCCN1CCN(CCc2ccc3c(c2)CCO3)CC1`, the cytotoxicity at 70.5 h was determined as 12.7%.
As for `COc1ccc(-c2ccc(C(=O)NS(C)(=O)=O)c(F)c2)cc1`, the cytotoxicity at 70.5 h was -5.82%.
For `Cc1oc(NC(=O)C(C)N2CCN(C(=O)C3CC3)CC2)c(C#N)c1C` (centres undefined), the cytotoxicity at 70.5 h is -1.91%.
For `CCSCCn1cc(-c2ncc[nH]2)nn1`, the cytotoxicity at 70.5 h was -17.4%.
Under `Cc1cc(F)cc(S(=O)(=O)Nc2noc(C)n2)c1` stands -1.08%; under `O=C(Nc1cc(-c2ccncc2)no1)C1CCCCC1`, -6.08%; under `O=C(CC1CN(Cc2ccccc2)CCO1)NCCN1CCOCC1` (centres undefined), 37.5%.
On to `CCN1CC2(CC1=O)CN(C(=O)NC(C)C)CCN(C(=O)NC(C)C)C2`, for which the cytotoxicity at 70.5 h was -4.47%.
Under `O=C(CCc1ccc(Cl)s1)N1CCCC(N2CCNC2=O)C1` (centres undefined) stands -17.9%; under `CO[C@H]1CNC[C@@H]1NC(=O)c1cc(C)nc2c(C)c(C)ccc12`, 5.29%; under `Cc1ccc2cccc(C(=O)NCCOCC3CC3)c2n1`, -0.418%.
`CN1CCOC(CNCC(=O)NCCc2ccc3c(c2)OCCO3)C1` (centres undefined): the cytotoxicity at 70.5 h came out at 4.64%.
For `NC(=O)c1c(NC(=O)C2CCCO2)sc2c1CCc1ccccc1-2` (centres undefined), the cytotoxicity at 70.5 h is -3.81%.
`NC(=O)CN1CCCN(C(=O)CCOc2ccccc2Cl)CC1`: the cytotoxicity at 70.5 h is -6.92%.
With `CSc1ccc(NCC(=O)NCC2CC2)cc1F`, the cytotoxicity at 70.5 h was -3.73%.
Under `Cc1nn(C)c2nc(NCCCN3CCCC(C(N)=O)C3)sc12` (centres undefined) stands -8.69%; under `COCCCNC(=O)Nc1cccc2c1CCN(S(C)(=O)=O)C2`, 21.4%.
Under `O=C(COc1ccc2c(c1)CCC2)N1CCOCC1c1ncon1` (centres undefined) stands -10.4%; under `COCc1nc(C(=O)NS(=O)(=O)c2c(C)c(C)cc(C)c2C)cs1`, 2.47%; under `CN1CCN(c2cnn(Cc3ccc(S(C)(=O)=O)cc3)c(=O)c2)CC1`, -2.57%.
As to `CN1CCc2[nH]cnc2C12CCN(C(=O)c1noc3c1CCCC3)CC2`, the cytotoxicity at 70.5 h was -10.9%.
To `Cc1cc(-c2cc(N)c(=O)n(CC(=O)N3CCCC(C)C3)n2)c(C)o1` (centres undefined) belongs -9.35%; to `O=C(CCN1C(=O)CC2(CCCC2)C1=O)NCCc1nccs1`, -22.6%.

For the origin of these results see ChEMBL document CHEMBL3507680, “University of Dundee, Gates Library screen for HepG2 cell viability”.
